According to publication PMC4471902, “Block of NMDA receptor channels by endogenous neurosteroids: implications for the agonist induced conformational states of the channel vestibule” (Scientific Reports, 2015):
“And” between values parts separate entries of the source, which are not always exact repeats. Identical values can stand only once. Counter-ions that a name gives are not always drawn.

Columns and labels:
[1] = Light scattering analysis of particle size in ECS; format: physicochemical
Experimental: Light scattering (Zetasizer Nano ZS, Malvern Instruments, United Kingdom) was used to characterize particle size of PA-S in ECS. PA-S was dissolved in DMSO at a concentration of 20 mM and then in the ECS at a final concentration of 5 nM to 150 μM PA-S. This solution was sonicated (Ultrasonic Sonorex Super RK 103 H, Bandelin electronic GmbH & Co. KG, Germany) for 1 min. Light scattering analysis was repeated six times for each sample at 25 °C.

[2] = tested on: non-transfected HEK293 cells; test: Membrane capacitance measurement of steroid association with and exit from the membrane; format: cell-based, Human
Text: Membrane capacitance was estimated by examining the integrated capacitive current (sampled at 30 kHz at 10 kHz filter cutoff frequency) evoked by depolarizing or hyperpolarizing voltage pulses from −60 mV to +30 mV for 3 ms delivered at 200 Hz.

GluN1/GluN2B receptors = molecular target: T1, GluN1/GluN2B receptors (Rattus norvegicus, UniProt P35439+Q00960); test: Whole-cell patch-clamp of GluN1/GluN2B receptor responses in transfected HEK293 cells; format: cell-based
T1 construct: expressed in transfected cells; host or cells: HEK293
T1 sequence (Q00960 27-1482, other chains not shown): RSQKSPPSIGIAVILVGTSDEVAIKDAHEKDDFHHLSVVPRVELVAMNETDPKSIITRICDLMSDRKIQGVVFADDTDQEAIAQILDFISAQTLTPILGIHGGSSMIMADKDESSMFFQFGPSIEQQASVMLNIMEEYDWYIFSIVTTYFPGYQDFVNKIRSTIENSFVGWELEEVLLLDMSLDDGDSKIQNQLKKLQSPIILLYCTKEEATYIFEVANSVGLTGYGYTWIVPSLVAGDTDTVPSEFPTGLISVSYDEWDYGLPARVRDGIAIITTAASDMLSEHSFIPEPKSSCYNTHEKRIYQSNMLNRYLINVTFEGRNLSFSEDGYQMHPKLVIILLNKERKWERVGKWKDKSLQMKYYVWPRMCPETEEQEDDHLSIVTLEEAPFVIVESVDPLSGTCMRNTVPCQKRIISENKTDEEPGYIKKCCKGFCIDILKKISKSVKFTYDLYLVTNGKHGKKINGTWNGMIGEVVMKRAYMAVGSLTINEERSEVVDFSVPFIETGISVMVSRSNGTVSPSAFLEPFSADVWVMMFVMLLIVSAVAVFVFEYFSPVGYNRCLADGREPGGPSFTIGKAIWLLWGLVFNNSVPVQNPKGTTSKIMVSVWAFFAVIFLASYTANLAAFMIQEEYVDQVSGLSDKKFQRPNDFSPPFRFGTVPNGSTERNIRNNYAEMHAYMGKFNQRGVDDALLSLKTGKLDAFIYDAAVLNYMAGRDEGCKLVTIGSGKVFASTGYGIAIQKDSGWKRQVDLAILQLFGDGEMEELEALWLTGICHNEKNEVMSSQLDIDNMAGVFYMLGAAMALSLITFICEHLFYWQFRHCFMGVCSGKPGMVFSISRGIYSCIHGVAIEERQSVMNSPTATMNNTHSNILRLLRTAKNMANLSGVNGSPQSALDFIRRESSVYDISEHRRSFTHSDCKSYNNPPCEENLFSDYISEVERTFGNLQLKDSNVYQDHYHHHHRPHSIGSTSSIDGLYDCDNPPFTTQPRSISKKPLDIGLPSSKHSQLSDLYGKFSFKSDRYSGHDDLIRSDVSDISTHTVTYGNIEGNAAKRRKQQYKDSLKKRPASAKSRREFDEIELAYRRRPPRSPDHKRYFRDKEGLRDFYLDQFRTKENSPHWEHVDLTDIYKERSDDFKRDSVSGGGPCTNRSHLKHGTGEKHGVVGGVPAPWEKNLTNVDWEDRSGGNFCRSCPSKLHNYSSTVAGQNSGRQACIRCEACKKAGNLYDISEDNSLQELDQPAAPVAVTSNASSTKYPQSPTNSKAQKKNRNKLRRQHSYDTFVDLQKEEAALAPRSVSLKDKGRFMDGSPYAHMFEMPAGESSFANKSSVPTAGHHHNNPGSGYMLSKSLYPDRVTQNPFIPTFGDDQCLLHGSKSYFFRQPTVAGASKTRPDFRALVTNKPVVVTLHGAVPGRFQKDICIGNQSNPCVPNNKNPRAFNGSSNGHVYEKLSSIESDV
Text: Human embryonic kidney (HEK293) cells were transfected with expression vectors containing: GluN1–1a (GenBank accession number U08261)[52]; GluN2B (GenBank accession number M91562); GluN1-4a(F484A), (generous gift from Dr. J. J. Woodward)[53] (Smothers & Woodward, 2009); GluN3A (generous gift from Dr. S. A. Lipton)[54] (GenBank accession number NM_138546); GluN1ΔN with deleted 354 amino acids in the NTD (32 to 386); GluN1ΔC with an introduced stop codon in 838 of the CTD GluN2BΔN) with deleted 354 amino acids in the NTD (32 to 386); GluN2BΔC with an introduced stop codon in 844 of the CTD[55]; GluR0 (GenBank accession number Synechocystis PCC 6803) (generous gift from Dr. M. L. Mayer)[18]; and green fluorescent protein (GFP) (pQBI 25, Takara, Tokyo, Japan) genes, as described previously. The Quick-Change site-directed mutagenesis kit (Agilent Technologies, Santa Clara, CA, USA) was used to generate specific point mutations in the M1/M3 region according to the manufacturer’s instructions using manually designed primers purchased from Sigma. Modified DNA plasmids were transformed into competent XL10-Gold E.coli cells, positive clones were selected, and isolated DNA was sequenced. […] All mutations were verified by DNA sequencing (Macrogen, Seoul, Korea or SeQme, Dobris, Czech Republic). The amino acids are numbered according to the full-length protein, including the signal peptide, with the initiating methionine as 1.
Experiments were performed 24–48 hrs after transfection on cells transfected with GluN1/GluN2B/GFP plasmids. Whole-cell voltage-clamp recordings from HEK293 cells were made with a patch-clamp amplifier (Axopatch 200B; Axon Instruments, Inc., Foster City, CA) after a capacitance and series resistance (<10 MΩ) compensation of 80–90%.
Patch pipettes (3–5 MΩ) were filled with a solution containing (in mM): 120 gluconic acid, 15 CsCl, 10 BAPTA, 10 HEPES, 3 MgCl2, 1 CaCl2, and 2 ATP-Mg salt (pH-adjusted to 7.2 with CsOH). When GluR0 receptor responses were studied, intracellular solution contained (in mM): 120 gluconic acid, 15 KCl, 10 BAPTA, 10 HEPES, 3 MgCl2, 1 CaCl2, and 2 ATP-Mg salt (pH-adjusted to 7.2 with KOH). Extracellular solution (ECS) contained the following (in mM): 160 NaCl, 2.5 KCl, 10 HEPES, 10 glucose, 0.2 EDTA, and 0.7 CaCl2 (pH-adjusted to 7.3 with NaOH). Glycine (10 μM), an NMDAR co-agonist, was present in the control and test solutions. All (PA-S and PA-A) solutions were made from freshly prepared 20 mM PA-S and 5 mM PA-A stock in dimethyl sulfoxide (DMSO). The final dilution to ECS was made at 50 °C and followed by 1 min sonication (SONOREX DIGITEC DT 100/H, BADELIN electronic, Berlin, Germany). The same concentration of DMSO was added to all extracellular solutions. Drug applications were made with a microprocessor-controlled multibarrel fast-perfusion system. Changes in the glutamate-induced current in HEK293 cells transfected by GluN1/GluN2B subunits were used to estimate the rate of solution exchange around the cell. Standard ECS was switched to the ECS diluted by water (50%) during glutamate application. The osmolarity was adjusted by sucrose to match the standard ECS. Glutamate (1 mM), glycine (10 μM) and pH was maintained constant in both solutions. The solution exchange rate was estimated to be τ = 4.3 ± 0.3 ms (n = 6) for lifted cells and τ = 12.0 ± 0.9 ms (n = 6) for the attached cells.
Experiments were performed at room temperature (21–25 °C). Data were collected (low-pass filtered at 2 kHz and sampled at 10 kHz) and analyzed using pClamp 10 (Molecular Devices). Unless otherwise mentioned, error bars represent SEM; statistical comparison of groups was performed using Student’s t-test (p < 0.05 was used to determine the significance).
(§1) The IC50 was determined from a single dose of a steroid using the formula [drawing 1] where I is the relative degree of inhibition and [steroid] is the steroid concentration used. […]

GluN2B(Y646A) = molecular target: T2, GluN2B(Y646A) (Rattus norvegicus, UniProt P35439+Q00960, Y646A); test: Whole-cell patch-clamp of GluN1/GluN2B(Y646A) receptor responses in HEK293 cells; format: cell-based
T2 construct: expressed in transfected cells; host or cells: HEK293
T2 sequence (Q00960 27-1482 Y646A, other chains not shown): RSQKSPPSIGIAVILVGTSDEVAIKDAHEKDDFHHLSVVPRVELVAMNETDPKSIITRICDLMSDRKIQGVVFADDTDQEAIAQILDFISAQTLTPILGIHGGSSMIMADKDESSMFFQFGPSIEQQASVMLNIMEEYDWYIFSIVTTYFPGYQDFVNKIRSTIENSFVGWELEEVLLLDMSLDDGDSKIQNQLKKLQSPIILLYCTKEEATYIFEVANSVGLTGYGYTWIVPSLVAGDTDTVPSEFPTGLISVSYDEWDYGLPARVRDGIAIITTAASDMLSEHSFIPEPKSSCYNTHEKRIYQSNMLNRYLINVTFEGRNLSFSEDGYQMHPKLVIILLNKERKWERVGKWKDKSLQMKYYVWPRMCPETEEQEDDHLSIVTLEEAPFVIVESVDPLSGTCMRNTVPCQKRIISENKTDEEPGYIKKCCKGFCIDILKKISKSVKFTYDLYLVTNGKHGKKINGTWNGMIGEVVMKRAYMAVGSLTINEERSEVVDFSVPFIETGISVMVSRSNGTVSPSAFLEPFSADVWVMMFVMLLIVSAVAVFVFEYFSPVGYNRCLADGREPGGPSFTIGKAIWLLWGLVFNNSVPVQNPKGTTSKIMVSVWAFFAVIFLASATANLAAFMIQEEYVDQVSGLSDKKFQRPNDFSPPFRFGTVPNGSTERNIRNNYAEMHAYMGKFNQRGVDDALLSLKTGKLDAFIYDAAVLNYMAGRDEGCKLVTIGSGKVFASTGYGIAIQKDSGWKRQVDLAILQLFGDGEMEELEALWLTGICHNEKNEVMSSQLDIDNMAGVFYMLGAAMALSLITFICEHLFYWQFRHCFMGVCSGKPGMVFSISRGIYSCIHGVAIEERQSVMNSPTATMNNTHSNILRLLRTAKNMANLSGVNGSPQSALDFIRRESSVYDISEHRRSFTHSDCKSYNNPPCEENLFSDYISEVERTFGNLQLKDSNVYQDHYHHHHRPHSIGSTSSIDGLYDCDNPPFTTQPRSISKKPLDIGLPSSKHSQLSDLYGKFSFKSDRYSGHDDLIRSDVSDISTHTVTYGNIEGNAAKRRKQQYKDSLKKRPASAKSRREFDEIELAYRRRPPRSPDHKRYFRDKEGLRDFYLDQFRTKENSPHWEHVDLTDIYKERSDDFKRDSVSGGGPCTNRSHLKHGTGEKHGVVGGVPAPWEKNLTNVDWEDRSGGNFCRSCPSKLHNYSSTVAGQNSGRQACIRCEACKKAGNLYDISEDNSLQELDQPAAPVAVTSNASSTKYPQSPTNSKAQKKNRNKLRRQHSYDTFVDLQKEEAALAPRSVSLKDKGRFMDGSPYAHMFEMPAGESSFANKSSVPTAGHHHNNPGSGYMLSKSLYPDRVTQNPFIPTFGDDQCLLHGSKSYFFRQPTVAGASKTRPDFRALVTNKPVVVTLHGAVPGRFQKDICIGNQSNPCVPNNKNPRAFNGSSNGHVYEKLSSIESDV
Text: Human embryonic kidney (HEK293) cells were transfected with expression vectors containing: GluN1–1a (GenBank accession number U08261)[52]; GluN2B (GenBank accession number M91562); GluN1-4a(F484A), (generous gift from Dr. J. J. Woodward)[53] (Smothers & Woodward, 2009); GluN3A (generous gift from Dr. S. A. Lipton)[54] (GenBank accession number NM_138546); GluN1ΔN with deleted 354 amino acids in the NTD (32 to 386); GluN1ΔC with an introduced stop codon in 838 of the CTD GluN2BΔN) with deleted 354 amino acids in the NTD (32 to 386); GluN2BΔC with an introduced stop codon in 844 of the CTD[55]; GluR0 (GenBank accession number Synechocystis PCC 6803) (generous gift from Dr. M. L. Mayer)[18]; and green fluorescent protein (GFP) (pQBI 25, Takara, Tokyo, Japan) genes, as described previously. The Quick-Change site-directed mutagenesis kit (Agilent Technologies, Santa Clara, CA, USA) was used to generate specific point mutations in the M1/M3 region according to the manufacturer’s instructions using manually designed primers purchased from Sigma. Modified DNA plasmids were transformed into competent XL10-Gold E.coli cells, positive clones were selected, and isolated DNA was sequenced. […]
as §1

[3] = 150 μM PA-S co-applied with 1 mM glutamate, 10 μM glycine, attached HEK293 cells
[4] = lifted HEK293 cells, 150 μM PA-S co-application with glutamate
[5] = lifted HEK293 cells, 150 μM PA-S wash

Compound: CC(=O)[C@H]1CC[C@H]2[C@@H]3CC[C@@H]4C[C@H](OS(=O)(=O)O)CC[C@]4(C)[C@H]3CC[C@]12C [PA-S, 20-oxo-5β-pregnan-3α-yl sulfate]
- PA-S concentration at which two particle sizes are present ([1]; ECS): > 300 nM
- PA-S concentration at which two particle sizes were observed ([1]; ECS): ≥ 0.4 µM
- small particle size (single steroid molecule) ([1]; ECS): ~ 2.5 nm
- critical aggregate concentration (CAC) ([1]; ECS, 25 °C): ~ 300 nM and 300 nM
- size of aggregates ([1]; ECS, concentrations relevant to effect at the NMDAR): ~ 400 nm
- molecules present in the ECS in aggregates ([1]; at the PA-S concentration corresponding to its IC50 at NMDARs): 99.5%
- fast dissociation time constant from the membrane [2]: ≤ 1 ms
- koff (rate of steroid dissociation from the membrane) [2]: ≥ 1000 s⁻¹
- capacitance increase during the steroid application ([2]; PA-S 150 μM for 1 s, attached cells): ~ 3%
- capacitance return after steroid washout As ([2]; PA-S 150 μM, attached cells): 41 ± 2%
- capacitance return after steroid washout τf ([2]; PA-S 150 μM, attached cells): < 5 ms
- capacitance return after steroid washout τs ([2]; PA-S 150 μM, attached cells): 222 ± 8 ms and 244 ms
- capacitance change after PA-S washout τ ([2]; lifted cells, only fast component resolved): < 5 ms
- onset of response to glycine Af (GluN1/GluN2B receptors): 84 ± 5%
- onset of response to glycine τf (GluN1/GluN2B receptors): 29 ± 3 ms
- onset of response to glycine τs (GluN1/GluN2B receptors): 280 ± 72 ms
- onset of inhibition Af (GluN1/GluN2B receptors; [3]): 75 ± 3%
- onset of inhibition τf (GluN1/GluN2B receptors; [3]): 30 ± 2 ms
- onset of inhibition τs (GluN1/GluN2B receptors; [3]): 579 ± 92 ms
- recovery from inhibition (offset) τs (GluN1/GluN2B receptors; 150 μM PA-S, 1 mM glutamate, 10 μM glycine, attached HEK293 cells): 536 ± 79 ms
- intercept of linear fit of mean inhibition versus holding potential (GluN1/GluN2B receptors; PA-S 200 µM, 1 mM glutamate, WT): 85.2
- voltage dependence of steroid inhibition (GluN1/GluN2B receptors; WT GluN1/GluN2B): voltage independent
- mode of inhibition (GluN1/GluN2B receptors; dependence on receptor activation by agonists): use-dependent
- time constant of the slow rate of recovery from inhibition (GluN1/GluN2B receptors; glutamate and steroid co-application for 30 s): 902 ± 201 ms
- onset of the response to glutamate application (10–90%) (GluN1/GluN2B receptors; immediately after 30 s PA-S (150 μM) pre-application in the absence of glutamate): 18.4 ± 1.6 ms
- onset of inhibition As (GluN1/GluN2B receptors; [4]): 20 ± 4%
- onset of inhibition τf (GluN1/GluN2B receptors; [4]): 10.8 ± 2.2 ms
- onset of inhibition τs (GluN1/GluN2B receptors; [4]): 480 ± 108 ms
- off rate As (GluN1/GluN2B receptors; [5]): 65% and 41 ± 6%
- off rate τf (GluN1/GluN2B receptors; [5]): 16 ms and 14.3 ± 1.7 ms
- off rate τs (GluN1/GluN2B receptors; [5]): 367 ms and 311 ± 70 ms
- IC50 (GluN2B(Y646A)): 4.3 ± 0.7 µM
